In paper PMC12058161, “The plant matrix of Artemisia annua L. for the treatment of malaria: Pharmacodynamic and pharmacokinetic studies” (PLOS One, 2025):
“And” between values parts separate entries of the source, which are not always exact repeats. Equal entries are not always repeated. Each block holds one molecule with its values, some of them ahead of it.

Key:
CYP3A4 = details: read-out: IC50 of CYP3A4 inhibition; cited from earlier work
P-glycoprotein (P-gp) = molecular target: T1, P-glycoprotein (P-gp) (Homo sapiens, UniProt P08183); assay: Rhodamine 123 (P-gp substrate) transport across drug-treated Caco-2 cell monolayers; assay type: cell-based; details: co-incubated with R123, 10 μM, Caco-2 monolayer, Fig 6
T1 construct: The transport of R123 in normal Caco-2 cell monolayers or drug-treated Caco-2 cell monolayers was further studied; host or cells: Caco-2
Description: The human epithelial cell line Caco-2 serves as a widely recognized model for the intestinal epithelial barrier, frequently utilized in the assessment of drug absorption and transport mechanisms. In this study, we evaluated drug absorption and distribution in vitro with the help of the Caco-2 cell model. Caco-2 cells were purchased from the Chinese Academy of Medical Sciences (Beijing, China, Resource No. 3111C0001CCC000100). The cells were resuscitated and inserted into culture flasks. Caco-2 cells were passaged with DMEM high glucose medium containing 10% (V/V) FBS, 1% (V/V) non-essential amino acid solution and 100 U/mL penicillin-streptomycin double antibiotic solution, and cultured at 37°C in a 5% CO2 incubator. […] The integrity of the cell monolayer was checked by measuring the transmembrane electrical resistance (TEER) of the monolayer cells with a Millicell-ERS electrode (Millipore Corp., Billerica, MA, USA). Caco-2 cells were used for transport experiments 17–21 days after inoculation. Besides, only monolayers with TEER values above 400 Ω/cm^2 were used in the study.
The transport of R123 in normal Caco-2 cell monolayers or drug-treated Caco-2 cell monolayers was further studied. […] The transport buffer containing 5 μM of R123 was added on either the AP or the BL side of the inserts, as described above. […] The concentrations of R123 were immediately analyzed by SpectraMax iD3. The excitation wavelength was set at 485 nm, and the emission wavelength at 535 nm. Papp values across the cell monolayers were calculated according to the equation: Papp = dQ/dt × 1/(A × C0), where dQ/dt represents the rate of drug transport. […] The efflux ratio was calculated using the Papp (BL-AP) to Papp (AP-BL) ratio.

Caco-2 cells = assay: Cytotoxicity in Caco-2 cells, CCK-8 assay; assay type: cell-based, human; details: for Cell survival rate%: mean; for cck-8 mean (survival fraction): mean of 6
Method: Caco-2 cells were cultured in 96-well plates for 48 h at a seeding density of 5.0 × 10^3 cells/well before the addition of drugs. […] The final concentration of DMSO was 0.05% (v/v). Experiments were initiated by replacing the culture medium in each well with 100 μL of sample solutions at 37°C in the CO2 incubator. After 48 h of incubation, the medium was removed and 10 μL of CCK-8 reagent in the serum-free medium was added to each well. The plates were then incubated at 37°C for another 2 h. At the end of the incubation period, the plates were quantified by reading the absorbance at 450 nm on a micro-plate multi-detection instrument, SpectraMax iD3 with SoftMax® Pro (Molecular Devices Corporation Sunnyvale, CA, USA). The percentage of cell viability was calculated based on the absorbance measured relative to the absorbance of cells exposed to the negative control.

[1] = male, Sprague Dawley, rat, in vivo, po, 352 mg/kg
in vivo = details: male, Sprague Dawley, rat, po, 352 mg/kg
[2] = Stability of the five compounds in SD rat plasma (QC samples, UHPLC-ESI-MS/MS); assay type: in vitro ADME; details: for mean measured concentration: rat plasma, mean of 5; for stability, Accuracy (measured versus nominal concentration) / stability, mean ± SD (measured concentration): SD rat plasma, n=5
Method: The method was validated according to the US Food and Drug Administration (FDA) Bioanalytical Method Validation Guidance as follows: [1] specificity was assessed by analyzing blank plasma, blank plasma spiked with standard solutions and rat plasma samples after oral administration. Each calibration curve was plotted using the concentration of the standard solution as the horizontal coordinate and the ratio of analyte to internal standard peak area as the vertical coordinate. The lower limit of quantification (LLOQ) refers to the lowest concentration, which is typically 10 times the signal-to-noise ratio. It has an acceptable accuracy of ± 20% and a precision of less than 20% [3]. Quality Control (QC) samples (low, medium and high concentrations) were prepared for each analyte. Five samples were analyzed at each concentration level and three consecutive batches were determined to calculate the accuracy and precision of the method. Extraction recovery was assessed by the ratio of the average peak area of routinely prepared QC samples (low, medium, and high concentrations) to the post-extraction plasma sample. Likewise, matrix effect was assessed by the ratio of peak areas between post-extraction samples spiked with analytes and mobile phases spiked with the same concentration of analytes.

[3] = Caco-2, concentration 10 μmol/L
[4] = Caco-2, concentration 20 μmol/L
[5] = Caco-2, concentration 40 μmol/L
[6] = Caco-2, concentration 80 μmol/L
[7] = nominal 160 ng/mL, 3 freeze-thaw cycles
[8] = nominal 160 ng/mL, 7 days at -80°C
[9] = nominal 160 ng/mL, Room temperature 24h
[10] = nominal 1000 ng/mL, 3 freeze-thaw cycles
[11] = nominal 1000 ng/mL, 7 days at -80°C
[12] = nominal 1000 ng/mL, Room temperature 24h
[13] = nominal 5000 ng/mL, 3 freeze-thaw cycles
[14] = nominal 5000 ng/mL, 7 days at -80°C
[15] = nominal 5000 ng/mL, Room temperature 24h

T1 sequence (P08183 whole entry): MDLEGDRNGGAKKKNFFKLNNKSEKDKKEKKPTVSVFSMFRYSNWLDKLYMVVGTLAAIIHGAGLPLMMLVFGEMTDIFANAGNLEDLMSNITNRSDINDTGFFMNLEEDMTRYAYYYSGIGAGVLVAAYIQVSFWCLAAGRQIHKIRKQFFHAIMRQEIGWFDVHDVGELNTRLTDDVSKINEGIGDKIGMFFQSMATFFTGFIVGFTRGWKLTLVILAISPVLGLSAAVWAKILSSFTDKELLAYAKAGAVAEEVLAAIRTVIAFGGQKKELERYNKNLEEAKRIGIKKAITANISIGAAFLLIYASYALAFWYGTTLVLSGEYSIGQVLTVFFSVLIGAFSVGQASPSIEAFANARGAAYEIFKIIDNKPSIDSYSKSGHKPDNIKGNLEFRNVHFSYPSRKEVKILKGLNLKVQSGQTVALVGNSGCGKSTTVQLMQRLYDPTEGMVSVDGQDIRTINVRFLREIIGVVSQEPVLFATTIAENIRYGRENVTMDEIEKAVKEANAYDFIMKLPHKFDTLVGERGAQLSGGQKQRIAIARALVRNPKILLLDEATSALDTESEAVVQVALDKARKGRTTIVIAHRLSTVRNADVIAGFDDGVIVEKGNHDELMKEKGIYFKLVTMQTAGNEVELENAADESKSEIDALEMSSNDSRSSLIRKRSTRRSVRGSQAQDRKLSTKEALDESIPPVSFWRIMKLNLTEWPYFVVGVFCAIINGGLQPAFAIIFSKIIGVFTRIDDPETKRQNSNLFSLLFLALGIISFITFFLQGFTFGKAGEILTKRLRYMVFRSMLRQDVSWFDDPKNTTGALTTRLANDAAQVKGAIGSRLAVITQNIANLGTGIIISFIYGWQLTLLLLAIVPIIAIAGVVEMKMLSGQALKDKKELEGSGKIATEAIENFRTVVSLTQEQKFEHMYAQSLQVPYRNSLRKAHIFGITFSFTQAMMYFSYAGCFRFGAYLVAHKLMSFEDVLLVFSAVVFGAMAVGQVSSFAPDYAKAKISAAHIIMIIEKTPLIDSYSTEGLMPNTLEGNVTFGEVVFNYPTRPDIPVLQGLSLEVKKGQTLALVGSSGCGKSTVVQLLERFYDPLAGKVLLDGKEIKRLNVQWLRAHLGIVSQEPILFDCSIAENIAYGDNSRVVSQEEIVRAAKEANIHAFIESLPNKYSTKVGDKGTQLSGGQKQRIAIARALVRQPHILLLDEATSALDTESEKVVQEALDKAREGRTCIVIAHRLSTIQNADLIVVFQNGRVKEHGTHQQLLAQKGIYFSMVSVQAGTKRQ

Compound: C=C1C(=O)O[C@@]23[C@H]1CC[C@@H](C)[C@@H]2CC[C@@]1(C)O[C@@H]31 [arteannuin B]
- IC50 (CYP3A4): 1.2 µM

- reduction of R123 transport from the BL side to the AP side (P-glycoprotein (P-gp)): 26.82%
- CL [1]: 0.001 ± 0.001 L/h
- CLz [1]: 24 mL/day/kg
- AUC(0-inf) (in vivo): 23700 ± 4990 ng·h/mL
- AUC(0-t) (in vivo): 23000 ± 4720 ng·h/mL
- Cmax (in vivo; Cmax): 5370 ± 590 ng/mL
- half-life (in vivo; t1/2): 4.29 ± 1.37 h
- mean measured concentration ([2]; AA QC 160ng, 3 freeze-thaw cycles): 175.436 ng/mL
- mean measured concentration ([2]; AA QC 160ng, 7 days at -80°C): 168.832 ng/mL
- mean measured concentration ([2]; AA QC 160ng, Room temperature 24h): 151.908 ng/mL
- mean measured concentration ([2]; AA QC 1000ng, 3 freeze-thaw cycles): 947.702 ng/mL
- mean measured concentration ([2]; AA QC 1000ng, 7 days at -80°C): 919.418 ng/mL
- mean measured concentration ([2]; AA QC 1000ng, Room temperature 24h): 955.778 ng/mL
- mean measured concentration ([2]; AA QC 5000ng, 3 freeze-thaw cycles): 4777.45 ng/mL
- mean measured concentration ([2]; AA QC 5000ng, 7 days at -80°C): 4737.9 ng/mL
- mean measured concentration ([2]; AA QC 5000ng, Room temperature 24h): 4689.24 ng/mL
- stability, Accuracy (measured versus nominal concentration) [2, 7]: 109.65%
- stability, mean ± SD (measured concentration) [2, 7]: 175 ± 7.36 ng/mL
- stability, Accuracy (measured versus nominal concentration) [2, 8]: 105.52%
- stability, mean ± SD (measured concentration) [2, 8]: 169 ± 8.62 ng/mL
- stability, Accuracy (measured versus nominal concentration) [2, 9]: 94.94%
- stability, mean ± SD (measured concentration) [2, 9]: 152 ± 6.95 ng/mL
- stability, Accuracy (measured versus nominal concentration) [2, 10]: 94.77%
- stability, mean ± SD (measured concentration) [2, 10]: 948 ± 56.6 ng/mL
- stability, Accuracy (measured versus nominal concentration) [2, 11]: 91.94%
- stability, mean ± SD (measured concentration) [2, 11]: 919 ± 34.8 ng/mL
- stability, Accuracy (measured versus nominal concentration) [2, 12]: 95.58%
- stability, mean ± SD (measured concentration) [2, 12]: 956 ± 68.0 ng/mL
- stability, Accuracy (measured versus nominal concentration) [2, 13]: 95.55%
- stability, mean ± SD (measured concentration) [2, 13]: 4777 ± 82.6 ng/mL
- stability, Accuracy (measured versus nominal concentration) [2, 14]: 94.76%
- stability, mean ± SD (measured concentration) [2, 14]: 4738 ± 174 ng/mL
- stability, Accuracy (measured versus nominal concentration) [2, 15]: 93.78%
- stability, mean ± SD (measured concentration) [2, 15]: 4689 ± 298 ng/mL
Compound: C=C(C(=O)O)[C@@H]1CC[C@@H](C)[C@@H]2CCC(C)=C[C@@H]21 [AA, Artemisinic acid]
- Cell survival rate%, single replicate (Caco-2 cells; Caco-2, 5μmol/L): 86.78% and 81.42% and 81.32% and 82.7% and 86.07% and 80.23%
- Cell survival rate%, single replicate (Caco-2 cells; Caco-2, 10μmol/L): 83.23% and 82.76% and 85.19% and 84.02% and 81.01% (2×)
- Cell survival rate%, single replicate (Caco-2 cells; Caco-2, 20μmol/L): 82.79% and 80.95% and 80.96% and 82.01% and 83.04% and 83.63%
- Cell survival rate%, single replicate (Caco-2 cells; Caco-2, 40μmol/L): 79.21% and 80.38% and 82.01% and 81.79% and 85.15% and 82.39%
- Cell survival rate%, single replicate (Caco-2 cells; Caco-2, 80μmol/L): 81.2% and 78.64% and 82.71% and 80.82% and 78.89% and 79.03%
- cck-8 cell survival as fraction, single replicate (Caco-2 cells; Caco-2, concentration 5 μmol/L): 0.8678 and 0.8142 and 0.8132 and 0.827 and 0.8607 and 0.8023
- Cell survival rate% (Caco-2 cells; Caco-2, concentration 5 μmol/L): 83.09%
- cck-8 mean (survival fraction) (Caco-2 cells; Caco-2, concentration 5 μmol/L): 0.83
- cck-8 cell survival as fraction, single replicate (Caco-2 cells; [3]): 0.8323 and 0.8276 and 0.8519 and 0.8402 and 0.8101
- Cell survival rate% (Caco-2 cells; [3]): 82.87%
- cck-8 mean (survival fraction) (Caco-2 cells; [3]): 0.83
- cck-8 cell survival as fraction, single replicate (Caco-2 cells; [4]): 0.8279 and 0.8095 and 0.8096 and 0.8201 and 0.8304 and 0.8363
- Cell survival rate% (Caco-2 cells; [4]): 82.23%
- cck-8 mean (survival fraction) (Caco-2 cells; [4]): 0.82
- cck-8 cell survival as fraction, single replicate (Caco-2 cells; [5]): 0.7921 and 0.8038 and 0.8201 and 0.8179 and 0.8515 and 0.8239
- Cell survival rate% (Caco-2 cells; [5]): 81.82%
- cck-8 mean (survival fraction) (Caco-2 cells; [5]): 0.82
- cck-8 cell survival as fraction, single replicate (Caco-2 cells; [6]): 0.812 and 0.7864 and 0.8271 and 0.8082 and 0.7889 and 0.7903
- Cell survival rate% (Caco-2 cells; [6]): 80.22%
- cck-8 mean (survival fraction) (Caco-2 cells; [6]): 0.80
